Laboratory results as given in patent US20240108618A1, “KRAS G12C INHIBITOR DOSING REGIMENS” (Eli Lilly and Company, priority 2022, published 2024).

Tested on: KRAS G12C-mutant advanced solid tumors
Test: NCT04956640 Phase 1a monotherapy clinical response (BOR, ORR, DCR, DOR, TTR, % change from baseline, treatment duration)
Type: in vivo, human
Conditions: for Best overall response (BOR): Complete Response (CR), % / Best overall response (BOR): No Evaluable (NE), % / Best overall response (BOR): Partial Response (PR), % / Best overall response (BOR): Partial Response, pending confirmation and ongoing (uPR), % / Best overall response (BOR): Progressive Disease (PD), % / Best overall response (BOR): Stable Disease (SD), % / Disease control rate (CR + PR + uPR + SD), % / Objective response rate (CR + PR), % / Objective response rate, confirmed and unconfirmed (CR + PR + uPR), %: Phase 1a NSCLC patients; for Duration of response (DOR) 6 to <9 months / Duration of response (DOR) <6 months / Time to response (TTR) 2 to <4 months / Time to response (TTR) 4 to <6 months / Time to response (TTR) 6 to <9 months / Time to response (TTR) <2 months: Phase 1a responders
Procedure: The term “BOR” as used herein refers to best overall response based on investigator assessments using RECIST criteria (version 1.1). The minimum duration for BOR of SD is at least 6 weeks after the date of first dose of study drug.
The term “DOR” as used herein refers to duration of response, wherein DOR in months is calculated as the event or censoring date minus the response start date plus 1 day divided by 30.4375.
The term “ORR” as used herein refers to objective response rate, wherein objective response rate is the proportion of patients with BOR of CR or PR. Objective response rate, unconfirmed, is the proportion of patients with BOR of CR, PR, or uPR.
The term “TTR” as used herein refers to time to response, wherein TTR in months is calculated as response start date minus first dose date plus 1 day divided by 30.4375.
NCT04956640 includes Phase 1a dose escalation (Part A of NCT04956640, see Table 3) followed by a Phase 1b dose expansion (Parts B to E of NCT04956640, see Table 4). […] Phase 1b dose expansion will include 12 cohorts (See Table 4) to further evaluate safety and clinical activity.

[1] = Without Prior KRAS G12Ci (N = 8)
[2] = starting dose 50 mg BID (N = 14)
[3] = starting dose 100 mg BID (N = 24)
[4] = starting dose 150 mg BID (N = 25)
[5] = starting dose 200 mg BID (N = 12)

C=CC(=O)N1CCN2C(=O)c3cc(F)c(-c4ccc(F)c5sc(N)c(C#N)c45)c(Cl)c3OCC[C@H]2C1 (single isomer, unassigned) [Formula I]
Best observed response PD (unconfirmed and confirmed), patients (CRC): 1
Best observed response PR (unconfirmed and confirmed), patients (CRC): 1
Best observed response SD, patients (CRC): 13
Best observed response PD (unconfirmed and confirmed), patients (NSCLC naïve to KRAS G12Ci): 1
Best observed response SD, patients (NSCLC naïve to KRAS G12Ci): 1
Best observed response PD (unconfirmed and confirmed), patients (NSCLC with prior KRAS G12Ci): 3
Best observed response PR (unconfirmed and confirmed), patients (NSCLC with prior KRAS G12Ci): 1
Best observed response SD, patients (NSCLC with prior KRAS G12Ci): 3
Best observed response PD (unconfirmed and confirmed), patients (PANC): 2
Best observed response PR (unconfirmed and confirmed), patients (PANC): 2
Best observed response SD, patients (PANC): 2
Best overall response (BOR): Complete Response (CR), % (Total (N = 22)): (0.0) %
Best overall response (BOR): No Evaluable (NE), % (Total (N = 22)): (4.5) %
Best overall response (BOR): Partial Response (PR), % (Total (N = 22)): (18.2) %
Best overall response (BOR): Partial Response, pending confirmation and ongoing (uPR), % (Total (N = 22)): (0.0) %
Best overall response (BOR): Progressive Disease (PD), % (Total (N = 22)): (22.7) %
Best overall response (BOR): Stable Disease (SD), % (Total (N = 22)): (54.5) %
Disease control rate (CR + PR + uPR + SD), % (Total (N = 22)): (72.7) %
Objective response rate (CR + PR), % (Total (N = 22)): (18.2) %
Objective response rate, confirmed and unconfirmed (CR + PR + uPR), % (Total (N = 22)): (18.2) %
Best overall response (BOR): Complete Response (CR), % (With Prior KRAS G12Ci (N = 14)): (0.0) %
Best overall response (BOR): No Evaluable (NE), % (With Prior KRAS G12Ci (N = 14)): (7.1) %
Best overall response (BOR): Partial Response (PR), % (With Prior KRAS G12Ci (N = 14)): (7.1) %
Best overall response (BOR): Partial Response, pending confirmation and ongoing (uPR), % (With Prior KRAS G12Ci (N = 14)): (0.0) %
Best overall response (BOR): Progressive Disease (PD), % (With Prior KRAS G12Ci (N = 14)): (28.6) %
Best overall response (BOR): Stable Disease (SD), % (With Prior KRAS G12Ci (N = 14)): (57.1) %
Disease control rate (CR + PR + uPR + SD), % (With Prior KRAS G12Ci (N = 14)): (64.3) %
Objective response rate (CR + PR), % (With Prior KRAS G12Ci (N = 14)): (7.1) %
Objective response rate, confirmed and unconfirmed (CR + PR + uPR), % (With Prior KRAS G12Ci (N = 14)): (7.1) %
Best overall response (BOR): Complete Response (CR), % [1]: (0.0) %
Best overall response (BOR): No Evaluable (NE), % [1]: (0.0) %
Best overall response (BOR): Partial Response (PR), % [1]: (37.5) %
Best overall response (BOR): Partial Response, pending confirmation and ongoing (uPR), % [1]: (0.0) %
Best overall response (BOR): Progressive Disease (PD), % [1]: (12.5) %
Best overall response (BOR): Stable Disease (SD), % [1]: (50.0) %
Disease control rate (CR + PR + uPR + SD), % [1]: (87.5) %
Objective response rate (CR + PR), % [1]: (37.5) %
Objective response rate, confirmed and unconfirmed (CR + PR + uPR), % [1]: (37.5) %
Duration of response (DOR) 6 to <9 months (Total (N = 75)): 3 (15.8) n (%)
Duration of response (DOR) <6 months (Total (N = 75)): 16 (84.2) n (%)
Time to response (TTR) 2 to <4 months (Total (N = 75)): 2 (10.5) n (%)
Time to response (TTR) 4 to <6 months (Total (N = 75)): 2 (10.5) n (%)
Time to response (TTR) 6 to <9 months (Total (N = 75)): 1 (5.3) n (%)
Time to response (TTR) <2 months (Total (N = 75)): 14 (73.7) n (%)
Duration of response (DOR) 6 to <9 months [2]: 0 (0.0) n (%)
Duration of response (DOR) <6 months [2]: 2 (100.0) n (%)
Time to response (TTR) 2 to <4 months [2]: 0 (0.0) n (%)
Time to response (TTR) 4 to <6 months [2]: 0 (0.0) n (%)
Time to response (TTR) 6 to <9 months [2]: 0 (0.0) n (%)
Time to response (TTR) <2 months [2]: 2 (100.0) n (%)
Duration of response (DOR) 6 to <9 months [3]: 0 (0.0) n (%)
Duration of response (DOR) <6 months [3]: 7 (100.0) n (%)
Time to response (TTR) 2 to <4 months [3]: 1 (14.3) n (%)
Time to response (TTR) 4 to <6 months [3]: 0 (0.0) n (%)
Time to response (TTR) 6 to <9 months [3]: 1 (14.3) n (%)
Time to response (TTR) <2 months [3]: 5 (71.4) n (%)
Duration of response (DOR) 6 to <9 months [4]: 2 (33.3) n (%)
Duration of response (DOR) <6 months [4]: 4 (66.7) n (%)
Time to response (TTR) 2 to <4 months [4]: 0 (0.0) n (%)
Time to response (TTR) 4 to <6 months [4]: 2 (33.3) n (%)
Time to response (TTR) 6 to <9 months [4]: 0 (0.0) n (%)
Time to response (TTR) <2 months [4]: 4 (66.7) n (%)
Duration of response (DOR) 6 to <9 months [5]: 1 (25.0) n (%)
Duration of response (DOR) <6 months [5]: 3 (75.0) n (%)
Time to response (TTR) 2 to <4 months [5]: 1 (25.0) n (%)
Time to response (TTR) 4 to <6 months [5]: 0 (0.0) n (%)
Time to response (TTR) 6 to <9 months [5]: 0 (0.0) n (%)
Time to response (TTR) <2 months [5]: 3 (75.0) n (%)
Patients with best overall response of CR or PR (Phase 1a, Total (N = 75)): 19 (25.3) N′ (%)
